Test [1] concerns Fatty Acid Synthase (FASN) gene. In words: Inhibition of FASN gene expression (qPCR) in Huh-7 cells. Format: cell-based, human. To be noted: Huh-7 cells, starvation medium, 16 hours, qPCR, class symbols, read-out: FASN IC50. The protocol: Huh-7 cells (purchased from ATCC) were cultured in DMEM medium (containing 10% fetal bovine serum LONSERA S711-001S) at 37°C in a 5% CO2 incubator. After 24 hours, the original medium was aspirated and replaced with DMEM starvation medium (containing 5% lipoprotein deficient serum (LPDS), 2 µM lovastatin, and 10 µM mevalonate). The control group was treated with dimethyl sulfoxide (DMSO), while the compound treatment groups were treated with different concentrations of compounds. The highest concentration of the compound was 3000 nM, with 3-fold dilutions, totaling 5 concentrations. The cells were cultured for 16 hours. Cell lysis was performed, followed by reverse transcription from cells to cDNA, and qPCR was performed to detect the expression of the SREBP target gene Fatty Acid Synthase (FASN) gene (FASN gene forward primer sequence: 5'-[…]-3', reverse primer sequence: 5'-[…]-3'). The IC50 was calculated. The test data for each test compound were analyzed using Prism software (with the DMSO-treated group as the reference to calculate the compound inhibition rate, fitted using the Prism log(inhibitor) vs. responseVariable slope (four-parameter) model, calculation formula: Y = Bottom + (Top - Bottom)/(1 + 10^((LogIC50 - X) × HillSlope))), to obtain the IC50 parameters of the compounds. Table 4: Inhibition results of FASN gene expression by compounds from some examples
(In general: In qPCR the cycle at which signal appears reflects the starting amount.)

Another test concerns SREBP pathway. Briefly: SREBP luciferase reporter gene system (SRE-luciferase assay). Format: cell-based, human. To be noted: Huh-7/SRE-luc cells, sterol-deficient medium, 0.01-10 µM. The method, boiled down:
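Readout was SRE-driven luciferase normalised to GFP fluorescence in lysates of stably transfected Huh-7/SRE-luc hepatoma cells. Compounds (0.01, 0.03, 0.1, 0.3, 1.0, 3.0, 10 µM; DMSO control) were applied for 16 h in sterol-depleted medium with 2 µM lovastatin and 10 µM mevalonate; IC50 from variable-slope fit.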
For orientation: Reporter assays use an easily measured gene product as a stand-in for the process of interest.

Where two headings read alike, the source gives them in different places. Where only a bound is given, the exact number is not on record here.

For orientation: IC50 means the concentration that gives 50% inhibition. As to `COc1cc(F)nc(F)c1[C@H](O)CCC[C@@H](C)[C@H]1CC[C@H]2[C@H]3[C@H](CC[C@]12C)[C@@]1(C)CC[C@H](O)[C@H](O)[C@@H]1CC3(F)F` (single isomer, unassigned) [Compound 262], the IC50 in test [1] (Homo sapiens, Huh-7, 16 h) is less than 0.2 µM; in the test on SREBP pathway (Homo sapiens, Huh-7, 16 h), 0.017 µM. Consider `COc1ccc(C(O)CCC[C@@H](C)[C@H]2CC[C@H]3[C@H]4[C@H](CC[C@]23C)[C@@]2(C)CC[C@H](O)[C@H](O)[C@@H]2CC4(F)F)c(F)n1` (single isomer, unassigned) [Compound 241, (1R,3aS,3bS,5aR,6R,7S,9aR,9bS,11aR)-4,4-difluoro-1-[(2R,6R)-6-(2-fluoro-6-methoxypyridin-3-yl)-6-hydroxyhexan-2-yl]-9a,11a-dimethylhexadecahydro-1H-cyclopenta[1,2-a]phenanthrene-6,7-diol or (1R,3aS,3bS,5aR,6R,7S,9aR,9bS,11aR)-4,4-difluoro-1-[(2R,6S)-6-(2-fluoro-6-methoxypyridin-3-yl)-6-hydroxyhexan-2-yl]-9a,11a-dimethylhexadecahydro-1H-cyclopenta[1,2-a]phenanthrene-6,7-diol], for which the IC50 in test [1] (Homo sapiens, Huh-7, 16 h) was less than 0.2 µM; in the test on SREBP pathway (Homo sapiens, Huh-7, 16 h), 0.14 µM. Regarding `COc1ncccc1C(O)CCC[C@@H](C)[C@H]1CC[C@H]2[C@H]3[C@H](CC[C@]12C)[C@@]1(C)CC[C@H](O)[C@H](O)[C@@H]1CC3(F)F` (single isomer, unassigned) [Compound 193, (1R,3aS,3bS,5aR,6R,7S,9aR,9bS,11aR)-4,4-difluoro-1-[(2R,6R)-6-hydroxy-6-(2-methoxypyridin-3-yl)hexan-2-yl]-9a,11a-dimethylhexadecahydro-1H-cyclopenta[1,2-a]phenanthrene-6,7-diol or (1R,3aS,3bS,5aR,6R,7S,9aR,9bS,11aR)-4,4-difluoro-1-[(2R,6S)-6-hydroxy-6-(2-methoxypyridin-3-yl)hexan-2-yl]-9a,11a-dimethylhexadecahydro-1H-cyclopenta[1,2-a]phenanthrene-6,7-diol], the IC50 in test [1] is 0.2 to 0.5 µM; in the test with SREBP pathway (16 hours) it was 0.072 µM. Take `C[C@H](CCCC(O)c1ccc(F)nc1F)[C@H]1CC[C@H]2[C@H]3[C@H](CC[C@]12C)[C@@]1(C)CC[C@H](O)[C@H](O)[C@@H]1CC3(F)F` (single isomer, unassigned) [Compound 227, (1R,3aS,3bS,5aR,6R,7S,9aR,9bS,11aR)-1-[(2R,6R)-6-(2,6-difluoropyridin-3-yl)-6-hydroxyhexan-2-yl]-4,4-difluoro-9a,11a-dimethylhexadecahydro-1H-cyclopenta[1,2-a]phenanthrene-6,7-diol or (1R,3aS,3bS,5aR,6R,7S,9aR,9bS,11aR)-1-[(2R,6S)-6-(2,6-difluoropyridin-3-yl)-6-hydroxyhexan-2-yl]-4,4-difluoro-9a,11a-dimethylhexadecahydro-1H-cyclopenta[1,2-a]phenanthrene-6,7-diol]: the concentration for half-maximal inhibition (IC50) in test [1] (Homo sapiens, Huh-7, 16 h) is 0.2 to 0.5 µM; in the test with SREBP pathway (16 hours), 0.014 µM. Turning to `COc1cc(F)c([C@H](O)CCC[C@@H](C)[C@H]2CC[C@H]3[C@H]4[C@H](CC[C@]23C)[C@@]2(C)CC[C@H](O)[C@H](O)[C@@H]2CC4(F)F)c(F)c1Br` (single isomer, unassigned) [Compound 199], the IC50 in test [1] (Homo sapiens, Huh-7, 16 h) is 0.2 to 0.5 µM; in the test on SREBP pathway (Homo sapiens, Huh-7, 16 h), 0.152 µM. On the same counts, the results for `COc1nc(F)ccc1C(O)CCC[C@@H](C)[C@H]1CC[C@H]2C3=C(F)C[C@H]4[C@@H](O)[C@@H](O)CC[C@]4(C)[C@H]3CC[C@]12C` (stereo partly drawn) [Compound 107, (1R,3aR,5aR,6R,7S,9aR,9bR,11aR)-4-fluoro-1-[(2R)-6-(6-fluoro-2-methoxypyridin-3-yl)-6-hydroxyhexan-2-yl]-9a,11a-dimethyl-2,3,3a,5,5a,6,7,8,9,9a,9b,10,11,11a-tetradecahydro-1H-cyclopenta[1,2-a]phenanthrene-6,7-diol] are 0.2 to 0.5 µM and 0.0777 µM. As for `C[C@H](CCCC(O)c1cccc2ncn(C)c12)[C@H]1CC[C@H]2[C@H]3[C@H](CC[C@]12C)[C@@]1(C)CC[C@H](O)[C@H](O)[C@@H]1CC3(F)F` (single isomer, unassigned) [Compound 299, (1R,3aS,3bS,5aR,6R,7S,9aR,9bS,11aR)-4,4-difluoro-1-[(2R,6R)-6-hydroxy-6-(3-methylbenzo[d]imidazol-4-yl)hexan-2-yl]-9a,11a-dimethylhexadecahydro-1H-cyclopenta[1,2-a]phenanthrene-6,7-diol or (1R,3aS,3bS,5aR,6R,7S,9aR,9bS,11aR)-4,4-difluoro-1-[(2R,6S)-6-hydroxy-6-(3-methylbenzo[d]imidazol-4-yl)hexan-2-yl]-9a,11a-dimethylhexadecahydro-1H-cyclopenta[1,2-a]phenanthrene-6,7-diol], the IC50 in test [1] (Homo sapiens, Huh-7, 16 h) was less than 0.2 µM; with SREBP pathway (Homo sapiens, Huh-7, 16 h), 0.033 µM.

For the compound `C[C@H](CCC[C@@H](O)c1nc2ccccc2n1C)[C@H]1CC[C@H]2[C@H]3[C@H](CC[C@]12C)[C@@]1(C)CC[C@H](O)[C@H](O)[C@@H]1CC3(F)F` [Compound 307, (1R,3aS,3bS,5aR,6R,7S,9aR,9bS,11aR)-4,4-difluoro-1-[(2R,6R)-6-hydroxy-6-(1-methylbenzo[d]imidazol-2-yl)hexan-2-yl]-9a,11a-dimethylhexadecahydro-1H-cyclopenta[1,2-a]phenanthrene-6,7-diol], the IC50 in test [1] (Homo sapiens, Huh-7, 16 h) was less than 0.2 µM; with SREBP pathway (Homo sapiens, Huh-7, 16 h), 0.054 µM. For the compound `C[C@H](CCCC(O)c1nc2ccccc2[nH]1)[C@H]1CC[C@H]2[C@H]3[C@H](CC[C@]12C)[C@@]1(C)CC[C@H](O)[C@H](O)[C@@H]1CC3(F)F` (stereo partly drawn) [Compound 303, (1R,3aS,3bS,5aR,6R,7 S,9aR,9bS,11aR)-4,4-Difluoro-1-[(2R)-6-hydroxy-6-(1H-benzo[d]imidazol-2-yl)hexan-2-yl]-9a,11a-dimethylhexadecahydro-1H-cyclopenta[1,2-a]phenanthrene-6,7-diol], the IC50 in test [1] (Homo sapiens, Huh-7, 16 h) was less than 0.2 µM; in the test with SREBP pathway (Homo sapiens, Huh-7, 16 h), 0.109 µM. Turning to `COc1cccc(F)c1C(O)CCC[C@@H](C)[C@H]1CC[C@H]2[C@H]3[C@H](CC[C@]12C)[C@@]1(C)CC[C@H](O)C(=O)[C@@H]1CC3(F)F` (stereo partly drawn) [Compound 124, (1R,3aS,3bS,5aR,7S,9aR,9bS,11aR)-4,4-difluoro-1-[(2R)-6-(2-fluoro-6-methoxyphenyl)-6-hydroxyhexan-2-yl]-7-hydroxy-9a,11a-dimethylhexadecahydro-1H-cyclopenta[1,2-a]phenanthren-6-one], the concentration for half-maximal inhibition (IC50) with SREBP pathway (Homo sapiens, Huh-7, 16 h) stood at 0.064 µM.

Take `C[C@H](CCC[C@H](O)c1n[nH]c2ccccc12)[C@H]1CC[C@H]2[C@H]3[C@H](CC[C@]12C)[C@@]1(C)CC[C@H](O)[C@H](O)[C@@H]1CC3(F)F` [Compound 319, (1R,3aS,3bS,5aR,6R,7S,9aR,9bS,11aR)-4,4-difluoro-1-[(2R,6S)-6-hydroxy-6-(1H-indazol-3-yl)hexan-2-yl]-9a,11a-dimethylhexadecahydro-1H-cyclopenta[1,2-a]phenanthrene-6,7-diol]: the IC50 with SREBP pathway (Homo sapiens, Huh-7, 16 h) was 0.104 µM. Take `COc1ccccc1C(CCC[C@@H](C)[C@H]1CC[C@H]2[C@@H]3CC[C@H]4[C@@H](O)[C@@H](O)CC[C@]4(C)[C@H]3CC[C@]12C)OC` (stereo partly drawn) [Compound 22, 24-[methoxy(2-methoxyphenyl)methyl]-5α-cholane-3β,4β-diol]: the IC50 with SREBP pathway (Homo sapiens, Huh-7, 16 h) amounted to 2.01 µM.
